Test results from US5248604A, “Enzymatically active recombinant human acetylcholinesterase and hosts and vectors for expression thereof” (priority 1991, dated 1993).

Tests used:
[1] = biological target: T1, recombinant human acetylcholinesterase mutant ser/r-met-AChE (serine instead of cysteine at position 611, additional N-terminal methionine); SEQ ID NO:1 numberin (Homo sapiens, UniProt P22303, C611S); test: Inhibitor specificity: enzyme reacted five minutes with inhibitor, then acetylthiocholine added (Ellman assay); type: biochemical; details: increasing dosages from 0.8×10^-8 M to 0.8×10^-6 M; dose-dependent
T1 construct: made in house; host or cells: E. coli S.phi.930 harboring pMLF-52ser
T1 sequence (P22303 32-614 C611S): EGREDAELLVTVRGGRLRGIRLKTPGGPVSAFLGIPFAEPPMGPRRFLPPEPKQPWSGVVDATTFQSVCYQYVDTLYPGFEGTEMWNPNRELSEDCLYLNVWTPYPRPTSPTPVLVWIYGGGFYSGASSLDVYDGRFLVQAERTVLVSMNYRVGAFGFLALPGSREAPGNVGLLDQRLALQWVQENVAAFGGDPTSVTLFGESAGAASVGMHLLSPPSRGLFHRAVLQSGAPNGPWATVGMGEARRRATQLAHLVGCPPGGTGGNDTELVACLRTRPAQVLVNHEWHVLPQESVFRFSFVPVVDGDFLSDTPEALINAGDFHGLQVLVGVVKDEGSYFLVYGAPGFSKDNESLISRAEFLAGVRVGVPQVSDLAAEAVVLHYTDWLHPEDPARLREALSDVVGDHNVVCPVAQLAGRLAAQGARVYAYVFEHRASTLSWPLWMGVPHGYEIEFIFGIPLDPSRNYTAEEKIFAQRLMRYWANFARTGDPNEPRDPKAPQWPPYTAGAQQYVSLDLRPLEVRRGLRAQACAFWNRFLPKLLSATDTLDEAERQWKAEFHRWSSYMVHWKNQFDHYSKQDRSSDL
Protocol: (§1) AChE activity was assayed by the spectrophotometric method of Ellman using acetylthiocholine as substrate (Ellman, G.L. et al. ([…]) Biochem. Pharm. 7: 88-95)). Acetylthiocholine hydrolysis generates free thiocholine which reacts with Ellman reagent (DTNB) to produce a yellow chromophore. The concentration of the yellow chromophore is determined by the absorption at 412 nm and is proportional to the amount of AChE present. One enzyme unit (U) is the amount of enzyme which hydrolyses 1 μmole of substrate per minute. The extinction coefficient of 1 M chromophore is […]. Specific activity is expressed as U/mg protein.
(§2) The authenticity of the activity of the refolded r-met-AChE and ser/r-met-AChE was verified by testing the refolded protein with two different substrates and a specific inhibitor. Acetylthiocholine (the specific substrate), and butyrylthiocholine (the BuChE substrate), and a specific inhibitor BW-284C51 (see Background of the Invention) were tested to see whether the recombinant enzyme retained the specific characteristics of the naturally-occurring enzyme. The enzyme was assayed with each of the two substrates, or first reacted for five minutes with the specific inhibitor BW-284651 and then the specific substrate was added to the reaction mix. […] Since the butyrylthiocholine was present at a 20-fold higher concentration than acetylthiocholine it is seen that the enzymatic activity towards the butyrylthiocholine is 200-fold less than towards the specific substrate. No activity at all was detected towards the 0.05 mM butyrylthiocholine.

[2] = biological target: T2, recombinant human acetylcholinesterase mutant ser/r-met-AChE (serine instead of cysteine at position 611, additional N-terminal methionine; SEQ ID NO:1 numbering) (Homo sapiens, UniProt P22303, C611S); test: as above; type: biochemical; details: substrate acetylthiocholine, non-purified enzyme
T2 construct: made in house; host or cells: E. coli S.phi.930 harboring pMLF-52ser
T2 sequence (P22303 32-614 C611S): as above
Protocol: as §1, §2

CC(=O)SCC[N+](C)(C)C = test: purified protein, by the assay type; details: other: refolded enzyme; Lineweaver-Burk plot (FIG. 8); pH 8.0
Protocol: Lineweaver-Burk Plot of ser/r-met-AChE Enzyme kinetics were determined for the mutant rAChE using acetylthiocholine as substrate.
AChE activity was assayed by the spectrophotometric method of Ellman using acetylthiocholine as substrate (Ellman, G.L. et al. (1981) Biochem. Pharm. 7: 88-95)). Acetylthiocholine hydrolysis generates free thiocholine which reacts with Ellman reagent (DTNB) to produce a yellow chromophore. The concentration of the yellow chromophore is determined by the absorption at 412 nm and is proportional to the amount of AChE present. One enzyme unit (U) is the amount of enzyme which hydrolyses 1 μmole of substrate per minute. The extinction coefficient of 1 M chromophore is 13.6×10^4. Specific activity is expressed as U/mg protein.

Row | Compound | inhibition [1] | inhibition at 0.8 µM ([2]; BW284C51 0.8 × 10^-6 M) [%] | inhibition at 0.08 µM ([2]; BW284C51 0.8 × 10^-7 M) [%] | inhibition at 0.008 µM ([2]; BW284C51 0.8 × 10^-8 M) [%] | Km (CC(=O)SCC[N+](C)(C)C) [µM]
1 | C=CC[N+](C)(C)c1ccc(CCC(=O)CCc2ccc([N+](C)(C)CC=C)cc2)cc1 [BW284C51] | 57%-100% | 100 | 87 | 55 | –
2 | recombinant human acetylcholinesterase mutant ser/r-met-AChE (serine instead of cysteine at position 611, additional N-terminal methionine; SEQ ID NO:1 numbering) (Homo sapiens; C611S) | – | – | – | – | 100
